The text below walks through data of US12110287B2, “Heterocyclic derivatives as Nav1.7 and Nav1.8 blockers” (RaQualia Pharma Inc., priority 2018, dated 2024).

pKi: −log10 of the molar value.

The target in this assay is Nav1.7 (Homo sapiens, UniProt Q15858). Description: Electrophysiology assay (whole cell patch clamp), affinity to inactivated state. The following applies: affinity to inactivated state (Kinact), read-out: activity (Ki) against Nav1.7. Also on record: expressed in transfected cells. It counts as cell-based. As to the method: Whole cell patch clamp recording is used to assess the efficacy or selectivity of Na (Sodium) channel blocker on human voltage gated sodium channels. Na channel expressing cells are dissociated by 0.05% Trypsin-EDTA or Accutase, and then seeded on cover glass for 2-24 hours.
Nav1.7, sequence (Q15858 whole entry): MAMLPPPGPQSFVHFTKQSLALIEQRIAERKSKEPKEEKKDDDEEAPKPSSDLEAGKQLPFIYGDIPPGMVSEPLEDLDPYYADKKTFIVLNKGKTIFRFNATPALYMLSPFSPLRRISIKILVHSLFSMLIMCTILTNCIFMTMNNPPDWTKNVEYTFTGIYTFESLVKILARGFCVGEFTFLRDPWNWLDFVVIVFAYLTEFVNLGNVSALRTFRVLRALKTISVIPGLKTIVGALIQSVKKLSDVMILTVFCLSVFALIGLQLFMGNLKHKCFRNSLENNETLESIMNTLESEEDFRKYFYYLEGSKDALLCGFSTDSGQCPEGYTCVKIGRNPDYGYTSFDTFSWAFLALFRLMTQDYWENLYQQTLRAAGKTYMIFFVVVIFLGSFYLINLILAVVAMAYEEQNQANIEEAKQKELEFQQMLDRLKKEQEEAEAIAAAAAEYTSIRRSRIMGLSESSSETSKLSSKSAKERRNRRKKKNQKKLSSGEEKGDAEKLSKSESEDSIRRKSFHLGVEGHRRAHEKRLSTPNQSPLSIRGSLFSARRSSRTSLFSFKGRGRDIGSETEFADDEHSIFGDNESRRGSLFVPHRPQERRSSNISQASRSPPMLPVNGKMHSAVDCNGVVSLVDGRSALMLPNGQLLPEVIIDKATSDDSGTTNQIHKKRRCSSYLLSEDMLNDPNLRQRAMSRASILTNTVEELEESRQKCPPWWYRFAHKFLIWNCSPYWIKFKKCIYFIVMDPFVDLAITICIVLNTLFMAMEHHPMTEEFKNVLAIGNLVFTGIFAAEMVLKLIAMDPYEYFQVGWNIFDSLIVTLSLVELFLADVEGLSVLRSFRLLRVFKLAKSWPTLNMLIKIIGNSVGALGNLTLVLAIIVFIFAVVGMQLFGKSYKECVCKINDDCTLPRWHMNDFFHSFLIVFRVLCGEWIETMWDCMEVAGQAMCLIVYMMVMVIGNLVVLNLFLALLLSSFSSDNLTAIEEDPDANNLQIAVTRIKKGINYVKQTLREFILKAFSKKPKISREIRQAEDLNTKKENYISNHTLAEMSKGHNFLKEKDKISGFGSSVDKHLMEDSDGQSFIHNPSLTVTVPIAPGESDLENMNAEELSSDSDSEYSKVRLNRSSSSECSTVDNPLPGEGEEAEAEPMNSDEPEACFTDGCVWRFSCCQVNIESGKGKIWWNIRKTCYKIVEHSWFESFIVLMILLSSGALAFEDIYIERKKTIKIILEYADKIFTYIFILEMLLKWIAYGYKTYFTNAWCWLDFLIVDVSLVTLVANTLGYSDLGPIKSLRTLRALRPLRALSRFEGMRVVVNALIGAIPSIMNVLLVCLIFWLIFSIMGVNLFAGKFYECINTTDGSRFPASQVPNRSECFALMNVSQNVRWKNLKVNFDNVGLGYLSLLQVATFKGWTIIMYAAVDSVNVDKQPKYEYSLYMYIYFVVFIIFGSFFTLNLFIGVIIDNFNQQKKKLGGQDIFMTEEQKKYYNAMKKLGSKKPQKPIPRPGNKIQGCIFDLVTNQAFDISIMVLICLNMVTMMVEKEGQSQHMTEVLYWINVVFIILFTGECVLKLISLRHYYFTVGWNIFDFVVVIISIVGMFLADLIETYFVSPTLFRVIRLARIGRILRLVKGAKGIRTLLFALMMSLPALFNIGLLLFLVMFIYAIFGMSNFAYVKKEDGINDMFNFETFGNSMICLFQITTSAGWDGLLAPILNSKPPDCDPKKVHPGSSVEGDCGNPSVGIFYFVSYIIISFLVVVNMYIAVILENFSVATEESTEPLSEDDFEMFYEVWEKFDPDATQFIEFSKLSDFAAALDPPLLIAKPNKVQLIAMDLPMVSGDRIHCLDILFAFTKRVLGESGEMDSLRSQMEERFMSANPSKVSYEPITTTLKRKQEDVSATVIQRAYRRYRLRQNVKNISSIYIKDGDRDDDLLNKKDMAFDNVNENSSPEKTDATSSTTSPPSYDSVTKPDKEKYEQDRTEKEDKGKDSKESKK
Manual patch clamp recordings are conducted at rt using the voltage-clamp amplifier (Axon Instruments or HEKA electronik). Electrodes are pulled with P-97 electrode puller (Sutter Instrument). The electrode resistances are 1-3 MOhm when intercellular solution is filled. Currents are lowpass filtered between 2-5 kHz and digitally sampled at 10 kHz. […]
After whole-cell configuration is achieved, cell is monitored at least 10 minutes to allow cell dialysis with pipette solution. […]
Peak currents evoked by Test 1 and Test 2 pulses are sampled with Clampex (Axon Instruments) or Pulse+Pulse Fit (HEKA). Averaged peak currents under vehicle or test compounds are calculated from 3 data points at end of each condition.
Inhibitory effects (% inhibition) on peak currents at Test 1 or Test 2 pulse are plotted against test concentration and IC50 values at Test 1 (Closed IC50) or Test 2 (Inactivated IC50) are calculated with Hill equation, respectively. […]
After whole-cell configuration is achieved, the cell is monitored at least 10-15 minutes to allow cell dialysis with pipette solution. […]

On to `O=C(N[C@@H]1CCCN(c2ncc(C(F)(F)F)cc2Cl)C1)c1ccnc(NC(=O)C2CC2)c1` [Example 7], for which the pKi (in general, −log10 of the Ki, conventionally taken in molar units) is greater than 6.70.
